Test results as given in patent US6653322B1, “Therapeutic combinations of RAR antagonists and RXR agonists and use thereof” (Bristol-Myers Squibb Company, priority 1996, dated 2003).
Entries after “also recorded” stand apart in the source; their conditions may differ.

Legend:
[1] = test system: NB4 cells; test: NB4 cell differentiation (TPA-induced nitroblue tetrazolium reduction); assay type: cell-based, human
Experimental: NB4 cells were obtained from ATCC and were grown in RPMI-1640 (plus 2 mM L-glutamine) containing 100 […] penicillin and streptomycin and 8% fetal bovine serum (FBS). Cells were treated for four days with retinoid(s) or ethanol vehicle, then washed and resuspended at a density of 5×10^5 cells/ml. 50 microliter aliquots of this suspension were spread over poly-L-lysine coated slides (Sigma, St. Louis, Mo.). After washing with PBS (137 mM NaCl, 2.7 mM KCl, 4.3 mM Na2HPO4, 1.4 mM KH2PO4), the cells were fixed for 10 minutes in 2% formalin (37% formaldehyde in 15% methanol in water) at room temperature.
Following fixation, cells were washed three times in PBS and were scored by TPA (12-O-tetradecanoyl-phorbol-13-acetate, 200 ng/ml)-induced nitroblue tetrazolium reduction (Sigma Fast BCIP/NBT) for 30 minutes at 37° C. Samples were examined for cellular and nuclear morphology with an optical microscope (Diavert Leitz); the percentage of differentiated cells was determined by counting at least 300 cells for each treatment.

[2] = test system: RARβ2 and RARγ mRNA; test: RARβ/RARγ expression by reverse transcriptase PCR in NB4 cells; assay type: cell-based, human; settings: for Expression of RARβ2 (and RARγ) by RT-PCR: retinoid alone
Experimental: Total RNA was isolated and reverse transcribed in a buffer solution comprising 10 mM Tris-HCl (pH 8.3), 50 mM KCl, 2 mM MgCl2 and 1 mM of all four deoxynucleoside triphosphates, using 25 units of AMV reverse transcriptase in the presence of 50 units of RNAsin for 60 minutes at 42° C. For reverse transcription, 25 picomoles per reaction of the common antisense primer 5′-[…]-3′ (SEQ ID NO:6) for either RARα, β or γ was used. For each PCR reaction the common antisense primer, one-fourth of the reverse transcribed product and the following specific sense primers were used: […]
The amplification was carried out in a final volume of 0.1 ml, using Taq DNA polymerase (Perkin Elmer Cetus) according the manufacturer's instructions. Eighteen PCR cycles (30 seconds at 94° C., 30 seconds at 65° C. and 30 seconds at 72° C.) were performed, and a 10 microliter aliquot of each reaction was analyzed by electrophoresis on a 6% native polyacrylamide gel, which was then stained with ethidium bromide and examined by ultraviolet illumination.

[3] = test system: NB4 cells; test: NB4 cell apoptosis (flow cytometry, DNA fragmentation); assay type: cell-based, human; settings: for Induction of NB4 cell apoptosis: retinoid alone
Experimental: The cell cycle distribution and presence of “sub-2N” cells and particles in control and retinoid-treated NB4 cells were determined by cell cycle flow cytometry based on DNA content, using an EPICS Profile II cell sorter (Coulter Electronics, Inc., Hialeah, Fla.) equipped with a 15 watt argon laser tuned to an excitation wavelength of 488 nm and filter sets providing an emission wavelength of 575 nm. Cultures of untreated or retinoid-treated cells were centrifuged (250×g) and fixed in 70% ethanol and stored at −20° C. Following two washes in PBS, the cells and subcellular particles were incubated in 1 mg/ml RNase A (59 Kunitz units/mg, Sigma Chemical Co., St. Louis, Mo.) for 30 minutes at 37° C., centrifuged and resuspended in PBS at a concentration of approximately 10^6 cells per ml. Ethidium bromide was added to a final concentration of 50 micrograms/ml immediately prior to sample analysis.
The induction of apoptosis by retinoids was also determined by the appearance of a “ladder” of fragmented DNA as previously described (Nagy, L., et al., Mol. Cell. Biol. 15:3540-3551 (1995)). Cells were refed with fresh media and retinoids every 2 days, and the cell density was maintained well below saturation in order to prevent cell death due to nutrient and/or mitogen depletion. Five micrograms per lane of DNA was electrophoresed in a 1.5% agarose gel, followed by staining with ethidium bromide, and DNA bands were visualized and photographed via ultraviolet illumination of ethidium bromide fluorescence.

[4] = biological target: T1, PML-RARα (Homo sapiens, UniProt P10276+P29590); test: Anti-PML immunofluorescence: association of PML/PML-RARα with nuclear bodies in NB4 cells; assay type: cell-based; settings: with SR11237
T1 construct: induced the association of endogenous PMUPML-RARα with nuclear bodies; endogenous in cells; host or cells: NB4 human acute promyelocytic leukemia cells
T1 sequence (P10276 61-462 limits assumed): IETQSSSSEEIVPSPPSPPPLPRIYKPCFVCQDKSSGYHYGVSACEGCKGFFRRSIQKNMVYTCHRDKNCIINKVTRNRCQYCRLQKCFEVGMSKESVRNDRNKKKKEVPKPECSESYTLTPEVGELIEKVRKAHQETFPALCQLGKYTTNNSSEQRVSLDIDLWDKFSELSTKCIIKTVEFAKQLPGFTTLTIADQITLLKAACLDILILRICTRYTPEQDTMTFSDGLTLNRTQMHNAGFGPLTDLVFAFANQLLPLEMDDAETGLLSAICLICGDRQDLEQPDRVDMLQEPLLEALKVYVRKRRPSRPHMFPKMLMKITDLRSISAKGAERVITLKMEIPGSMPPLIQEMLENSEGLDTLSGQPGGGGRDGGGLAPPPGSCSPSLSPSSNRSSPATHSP
Experimental: Following fixation, cells were permeabilized with 0.1% Triton X-100 in PBS (buffer A). After washing in PBS, the cells were blocked in 0.5 mg/ml normal goat IgG (Jackson Laboratories, Bar Harbor, Me.) in PBS for 30 minutes at room temperature, and thereafter incubated overnight at 4° C. with a polyclonal anti-PML antibody (the kind gift of Dr. Anne Dejean), diluted in buffer A containing 0.5 mg/ml normal goat IgG (buffer B) at 4° C. After three washes in buffer A, the cells were incubated with donkey anti-rabbit IgG (H+L) conjugated with cyanine 3 (Jackson Laboratories, Bar Harbor, Me.) in buffer B for 1 hour at room temperature. Following washes in PBS the mounted samples were examined with a confocal laser microscope (TCS, Leica) equipped with cyanine optics for PML localization.

[5] = test system: AP1 activity; settings: via all three RARs; Chen et al. 1995; cited from earlier work
[6] = biological target: T2, GAL-RARα (Homo sapiens, UniProt P10276); test: HeLa reporter cells, agonistic/antagonistic activity of RAR-specific ligands; assay type: cell-based; settings: FIG. 1, FIG. 2
T2 construct: expressed in transfected cells; host or cells: HeLa
T2 sequence (P10276 183-417 limits assumed): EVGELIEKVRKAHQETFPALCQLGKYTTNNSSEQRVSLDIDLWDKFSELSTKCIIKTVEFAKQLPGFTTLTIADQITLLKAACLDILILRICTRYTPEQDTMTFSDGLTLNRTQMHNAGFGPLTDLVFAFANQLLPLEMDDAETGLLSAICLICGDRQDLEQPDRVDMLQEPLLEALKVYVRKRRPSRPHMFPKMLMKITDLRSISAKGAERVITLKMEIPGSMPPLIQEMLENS
Experimental: (§1) HeLa reporter cell lines containing a retinoid-inducible luciferase reporter gene (17 m)5-globin-Luc in the stably transfected reporter constructs GAL-RARα, GAL-RARβ or GAL-RARγ were constructed and used as described previously (Chen, J. Y., et al., EMBO J. 14:1187-1197 (1995)). Cells were treated with RAR-specific ligands, and luciferase-induced bioluminescence was monitored in vivo using a single-photon-counting camera (Hamamatsu) by seeding equal amounts of cells in 24-well tissue culture plates and incubating them with increasing concentrations of retinoids alone, or in the presence of T-RA to determine the antagonistic potential of the ligands.

[7] = biological target: T3, GAL-RARβ (Homo sapiens, UniProt P10826); test: as above; assay type: cell-based; settings: FIG. 1
T3 construct: expressed in transfected cells; host or cells: HeLa
T3 sequence (P10826 183-417 limits assumed): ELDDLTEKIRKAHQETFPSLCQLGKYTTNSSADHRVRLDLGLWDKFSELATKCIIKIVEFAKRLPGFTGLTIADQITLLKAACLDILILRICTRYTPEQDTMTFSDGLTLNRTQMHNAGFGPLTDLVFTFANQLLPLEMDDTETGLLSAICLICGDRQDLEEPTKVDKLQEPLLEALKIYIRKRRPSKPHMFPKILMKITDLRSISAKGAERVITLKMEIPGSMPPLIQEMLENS
Experimental: as §1

[8] = biological target: T4, GAL-RARγ (Homo sapiens, UniProt P13631); test: as above; assay type: cell-based; settings: FIG. 1
T4 construct: expressed in transfected cells; host or cells: HeLa
T4 sequence (P13631 185-419 limits assumed): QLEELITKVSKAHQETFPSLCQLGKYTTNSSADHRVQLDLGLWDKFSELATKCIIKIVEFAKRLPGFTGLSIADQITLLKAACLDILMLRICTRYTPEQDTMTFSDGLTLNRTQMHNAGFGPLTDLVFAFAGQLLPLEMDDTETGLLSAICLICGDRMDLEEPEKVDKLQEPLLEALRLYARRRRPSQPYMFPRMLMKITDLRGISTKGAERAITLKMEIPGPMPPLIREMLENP
Experimental: as §1

[9] = test system: F9 EC cells; settings: ligand on its own, Roy et al. 1995; cited from earlier work
[10] = test system: P19 cells; settings: ligand on its own, Roy et al. 1995; cited from earlier work
[11] = in presence of RXR agonist SR11237
[12] = retinoid alone at 1 (concentration unit not given), 4 days
[13] = retinoid alone at 10 (concentration unit not given), 4 days
[14] = retinoid alone at 100 (concentration unit not given), 4 days
[15] = retinoid at 1 +100 nM SR11237, 4 days
[16] = retinoid alone at 1000 (concentration unit not given), 4 days
[17] = retinoid at 10 +100 nM SR11237, 4 days
[18] = retinoid at 100 +100 nM SR11237, 4 days

Compound | Induction of NB4 cell differentiation [1, 11] | Percentage of NB4 cells differentiated [1, 12] [%] | Percentage of NB4 cells differentiated [1, 13] [%] | Percentage of NB4 cells differentiated [1, 14] [%] | Percentage of NB4 cells differentiated [1, 15] [%] | Induction of NB4 cell differentiation ([1]; retinoid on its own) | Expression of RARβ2 (and RARγ) by RT-PCR [2] | Percentage of NB4 cells differentiated [1, 16] [%] | Percentage of NB4 cells differentiated [1, 17] [%] | Percentage of NB4 cells differentiated [1, 18] [%] | Induction of NB4 cell apoptosis [3] | other results
CC1(C)CCC(C)(C)c2cc(NC(=O)c3ccc(C(=O)O)cc3)ccc21 [Am80] | significantly more efficient at inducing differentiation at low concentrations | 80 | 81 | 80 | 80 | efficiently induced differentiation | induced expression of RARβ2 (and RARγ) was confirmed | – | – | – | – | Percentage of NB4 cells differentiated ([1]; retinoid alone at 0.1 (concentration unit not given), 4 days): <1%; Percentage of NB4 cells differentiated ([1]; retinoid alone at 0.3 (concentration unit not given), 4 days): <1%; Percentage of NB4 cells differentiated ([1]; retinoid alone at 0.5 (concentration unit not given), 4 days): <1%; Percentage of NB4 cells differentiated ([1]; retinoid at 0.1 +100 nM SR11237, 4 days): <1%; Percentage of NB4 cells differentiated ([1]; retinoid at 0.3 +100 nM SR11237, 4 days): 20%; Percentage of NB4 cells differentiated ([1]; retinoid at 0.5 +100 nM SR11237, 4 days): 40%
CC1=C(/C=C/C(C)=C\C=C\C(C)=C\C(=O)O)C(C)(C)CCC1 [Compound 9C-RA, 9-cis (9C-RA) retinoic acid] | – | <1 | 4 | 65 | – | – | – | 70 | – | – | – | –
CC1(C)CC=C(c2ccccc2)c2cc(/C=C/c3ccc(C(=O)O)cc3)ccc21 [Compound A] | induced differentiation with higher efficiency than T-RA or 9C-RA | – | – | – | <1 | ineffective on their own | no induction | <1 | 65 | 78 | inefficient alone | Antiproliferative and apoptotic effect on NB4 cells ([3]; in combination with SR11237): strong antiproliferative and apoptotic effect; RARβ and RARγ mRNA production ([2]; with SR11237): efficient accumulation of RARβ and RARγ mRNA; Association of PML-RARα with nuclear bodies [4]: indistinguishable from that seen in presence of RARα agonists; Repression of AP1 activity [5]: efficiently repressing AP1 activity via all three RARs
CC1(C)CC=C(c2cnc3ccccc3c2)c2cc(C(=O)Nc3ccc(C(=O)O)cc3)ccc21 [Compound B] | induced differentiation | – | – | – | <1 | ineffective on their own | – | <1 | 3 | 5 | – | Block of differentiation induced by 1 nM Am80 ([1]; excess of the compound): completely blocked; Percentage of NB4 cells differentiated ([1]; retinoid at 1000 +100 nM SR11237, 4 days): 10%; Binding to RARα [6]: lower binding affinity for RARα; Binding to RARβ [7]: does not bind; Binding to RARγ [8]: does not bind
CC1(C)CCC(C)(C)c2cc(C3(c4ccc(C(=O)O)cc4)OCCO3)ccc21 [SR11237] | – | – | – | – | – | ineffective on their own; also recorded: did not induce differentiation | – | <2 | – | – | inefficient alone | Induction of differentiation and expression of RA target genes [9]: unable to induce; Induction of differentiation and expression of RA target genes [10]: unable to induce
CC1=C(/C=C/C(C)=C/C=C/C(C)=C/C(=O)O)C(C)(C)CCC1 [T-RA, all-trans retinoic acid] | – | <1 | <1 | 81 | – | – | – | 80 | – | – | extensive apoptosis | –
